Data: publication PMC10916623, “Tissue distribution and pharmacokinetics of isoxanthohumol from hops in rodents” (Food Science & Nutrition, 2023)

Experiment: Tissue and plasma accumulation after daily gavage administration of IXA to mice for 14 days
Assay type: in vivo, C57/BL6 mice
Details: IXA 30 mg/kg BW daily 14 days, 24 h after final administration
Method: Animal species, age, sex, initial BW, feeding conditions, and dosage method were the same as those for the single gavage administration test, but the dose was 30 mg/kg BW. […] Daily gavage administration without fasting was performed at 12:00 PM for 14 days. The final BW was 21–26 g. Blood, brain, thymus, heart, lung, liver, spleen, kidney, and gastrocnemius muscle were collected 24 h after the final administration. The sample collection method was the same as that for the single gavage administration test.
Plasma samples were deconjugated by β‐glucuronidase type H‐1 (which has β‐glucuronidase and sulphatase activity; Sigma, St. Louis, MO, USA; G0751) to convert aglycon from conjugated metabolites of IXA and 8‐PN, as described in a previous report (Y. Tanaka et al., [2022]). Briefly, 100 μL of plasma was mixed with 900 μL of 0.1 mol/L sodium acetate buffer (pH 4.7), 200 μL of 50 mmol/L ascorbic acid, and 1 mL of 1.67 μkat/100 μL of β‐glucuronidase type H‐1, and then incubated for 30 min at 37°C. Then, 2.4 nmol of QTM was added to the samples as the internal standard. The liberated aglycone was extracted using ethyl acetate (Kanto Kagaku, 14,029‐2B).
Tissue sample deconjugation was performed as described in a previous report with slight modifications (Tanaka et al., [2022]). Tissues were homogenized in phosphate‐buffered saline (pH 7.4), which was nine times the tissue volume. The tissue homogenate was incubated in 50 mmol/L ascorbic acid (one‐fifth the volume of phosphate‐buffered saline) and 1.67 μkat/100 μL of β‐glucuronidase type H‐1 in 0.1 mol/L sodium acetate buffer (pH 4.7, nine times the volume of the sample) for 2 h at 37°C. Then, 2.4 nmol of QTM was added to samples as an internal standard. The supernatant was isolated by centrifugation at 17 × 10^3 m/s^2 (Kubota) for 5 min at 4°C. Then, methanol (Kanto Kagaku, 25183‐2B) was added to the pellets, and they were shaken for 1 min. The methanol layer and pellets were separated by centrifugation at 17 × 10^3 m/s^2 (Kubota, RY1071‐A000) for 5 min at 4°C. Methanol extraction was repeated three times. Finally, methanol extracts were mixed with the supernatant (the composition of the mixture was 30% methanol) and then applied to an Inert Sep C8 (200 mg/3 mL; GL Sciences, Tokyo, Japan; 5010‐61082) cartridge. The cartridge was preconditioned with 6 mL of 2% acetic acid in methanol, and then 9 mL of 2% acetic acid in water. The extracted tissue was passed through the cartridge, and it was washed with 5 mL of 2% acetic acid in 30% methanol aq. The flavonoids were eluted with 10 mL of 2% acetic acid in methanol.
The plasma and tissue extracts were evaporated using a Centrifugal Evaporator (EYERA, Tokyo, Japan, CVE‐3000). The samples were stored at −80°C until the next day. Then, the samples were dissolved in 120 μL of a mobile phase solution and divided into two test tubes. The first sample was injected into the HPLC with an ultraviolet detection system (Shimadzu, Kyoto, Japan).
IXA and 8‐PN concentrations were determined by their respective standard curves using an internal standard method. A Cadenza 3‐μm CD‐C18 HPLC column (CD005, 150 × 4.6 mm; Imtakt Corporation, Kyoto, Japan) was equipped for HPLC (λ = 295 nm). The mobile phase consisted of methanol:water:acetic acid (60:35:5, v/v/v). The flow rate was set at 1.0 mL/min. […] Because clear peaks over 4.5 pmol/sample were detected for IXA and 8‐PN by visual evaluation, we determined that these concentrations were the peak limit of detections for each flavonoid. We applied calibration curves in the IXA/QTM concentration ratio range of 0.007–35.1 (R ^2 = .9955).

4,7‐dihydroxy‐5‐methoxy‐8‐prenylflavanone [IXA]
IXA accumulation, 14-day repeated-ingestion test (brain): 0.2 ± 0.1 nmol/g of tissue | IXA accumulation, 14-day repeated-ingestion test (heart): not detected | IXA accumulation, 14-day repeated-ingestion test (kidney): 5.8 ± 1.0 nmol/g of tissue | IXA accumulation, 14-day repeated-ingestion test (liver): 8.6 ± 2.9 nmol/g of tissue | IXA accumulation, 14-day repeated-ingestion test (lung): 3.2 ± 2.8 nmol/g of tissue | IXA accumulation, 14-day repeated-ingestion test (plasma): not detected | IXA accumulation, 14-day repeated-ingestion test (spleen): 3.4 ± 2.0 nmol/g of tissue | IXA accumulation, 14-day repeated-ingestion test (thymus): 4.3 ± 3.8 nmol/g of tissue
